Experimental data reported in EP0908457B1, “3-(1,2-benzisothiazol- and isoxazol-5-Y1)-2,4(1H,3H)-pyrimidinedione or thione and 3-(1,2-benzisothiazol- and isoxazol-5-y1)-4(3H)-pyrimidinone or thione herbicidal agents” (BASF AKTIENGESELLSCHAFT, priority 1997, dated 1999).

Assays:
[1] = test system: Oryza sativa, (L.) Tebonnet; assay: Rice tolerance to post-transplant applications under flooded paddy conditions (Example 187), ORYSAT (Rice, Tebonnet); conditions: rated three to four weeks after treatment
Cyperus iria = assay: Preemergence weed control under flooded paddy conditions, CYPIR (Rice Flatsedge); assay type: in vivo; conditions: preemergence, flooded paddy, rated three to four weeks after treatment
[2] = test system: Monochoria vaginalis, Presl.; assay: Preemergence weed control under flooded paddy conditions, MOOVA (Monochoria); assay type: in vivo; conditions: preemergence, flooded paddy, rated three to four weeks after treatment
Sagittaria pygmaea, L. = assay: Preemergence weed control under flooded paddy conditions, SAGPY (Arrowhead (Pygmaea)); assay type: in vivo; conditions: preemergence, flooded paddy, rated three to four weeks after treatment
[3] = test system: Cyperus serotinus, Rottb.; assay: Preemergence weed control under flooded paddy conditions, CYPSE (Flatsedge); assay type: in vivo; conditions: preemergence, rated three to four weeks after treatment
[4] = test system: Echinochloa oryzoides (Ard.) Fritsch.; assay: Preemergence weed control under flooded paddy conditions, ECHORC (Watergrass (Calif.)); assay type: in vivo; conditions: preemergence, flooded paddy, rated three to four weeks after treatment

Row | Structure (SMILES) | ORYSAT herbicidal effect rating ([1]; Rate 0.1250 kg/ha) | ORYSAT herbicidal effect rating ([1]; Rate 0.2500 kg/ha) | CYPIR herbicidal effect rating (Cyperus iria; Rate 0.1250 kg/ha) | CYPIR herbicidal effect rating (Cyperus iria; Rate 0.2500 kg/ha) | MOOVA herbicidal effect rating ([2]; Rate 0.1250 kg/ha) | MOOVA herbicidal effect rating ([2]; Rate 0.2500 kg/ha) | SAGPY herbicidal effect rating (Sagittaria pygmaea, L.; Rate 0.1250 kg/ha) | SAGPY herbicidal effect rating (Sagittaria pygmaea, L.; Rate 0.2500 kg/ha) | CYPSE herbicidal effect rating ([3]; Rate 0.1250 kg/ha) | CYPSE herbicidal effect rating ([3]; Rate 0.2500 kg/ha) | ECHORC herbicidal effect rating ([4]; Rate 0.1250 kg/ha) | ECHORC herbicidal effect rating ([4]; Rate 0.2500 kg/ha) | ORYSAT herbicidal effect rating ([1]; Rate 0.0320 kg/ha) | ORYSAT herbicidal effect rating ([1]; Rate 0.0620 kg/ha) | CYPIR herbicidal effect rating (Cyperus iria; Rate 0.0320 kg/ha) | CYPIR herbicidal effect rating (Cyperus iria; Rate 0.0620 kg/ha) | MOOVA herbicidal effect rating ([2]; Rate 0.0620 kg/ha) | SAGPY herbicidal effect rating (Sagittaria pygmaea, L.; Rate 0.0620 kg/ha) | CYPSE herbicidal effect rating ([3]; Rate 0.0620 kg/ha) | ECHORC herbicidal effect rating ([4]; Rate 0.0620 kg/ha) | further results
1 | C=CCOc1nc(C(F)(F)F)cc(=O)n1-c1ccc2snc(-c3cc(C)ccc3OC)c2c1 [Example 245, 2-(Allyloxy)-3-[3-(6-methoxy-m-tolyl)-1,2-benzisothiazol-5-yl]-6-(trifluoromethyl)-4(3H)-pyrimidinone] | 0.0 | 0.0 | 0.0 | 0.0 | 0.0 | 0.0 | 0.0 | 0.0 | 0.0 | 0.0 | 0.0 | 0.0 | – | – | – | – | – | – | – | – | ORYSAT herbicidal effect rating ([1]; Rate 0.0313 kg/ha): 0.0; ORYSAT herbicidal effect rating ([1]; Rate 0.0625 kg/ha): 0.0; CYPIR herbicidal effect rating (Cyperus iria; Rate 0.0313 kg/ha): 0.0; CYPIR herbicidal effect rating (Cyperus iria; Rate 0.0625 kg/ha): 0.0; MOOVA herbicidal effect rating ([2]; Rate 0.0313 kg/ha): 0.0; MOOVA herbicidal effect rating ([2]; Rate 0.0625 kg/ha): 0.0; SAGPY herbicidal effect rating (Sagittaria pygmaea, L.; Rate 0.0313 kg/ha): 0.0; SAGPY herbicidal effect rating (Sagittaria pygmaea, L.; Rate 0.0625 kg/ha): 0.0; CYPSE herbicidal effect rating ([3]; Rate 0.0313 kg/ha): 0.0; CYPSE herbicidal effect rating ([3]; Rate 0.0625 kg/ha): 0.0; ECHORC herbicidal effect rating ([4]; Rate 0.0313 kg/ha): 0.0; ECHORC herbicidal effect rating ([4]; Rate 0.0625 kg/ha): 0.0
2 | CCOc1nc(C(F)(F)F)cc(=O)n1-c1ccc2snc(-c3cc(C)ccc3OCC(=O)OC)c2c1 [Example 246, Methyl {{2-{5-[2-ethoxy-6-oxo-4-(trifluoromethyl)-1(6H)-pyrimidinyl]-1,2-benzisothiazol-3-yl}-p-tolyl}oxy}acetate] | 2.0 | 2.0 | 4.0 | 4.0 | 9.0 | 9.0 | 2.0 | 2.0 | 0.0 | – | 9.0 | 9.0 | – | – | – | – | – | – | – | – | ORYSAT herbicidal effect rating ([1]; Rate 0.0313 kg/ha): 0.0; ORYSAT herbicidal effect rating ([1]; Rate 0.0625 kg/ha): 1.0; CYPIR herbicidal effect rating (Cyperus iria; Rate 0.0313 kg/ha): 0.0; CYPIR herbicidal effect rating (Cyperus iria; Rate 0.0625 kg/ha): 2.0; MOOVA herbicidal effect rating ([2]; Rate 0.0313 kg/ha): 9.0; MOOVA herbicidal effect rating ([2]; Rate 0.0625 kg/ha): 9.0; SAGPY herbicidal effect rating (Sagittaria pygmaea, L.; Rate 0.0313 kg/ha): 0.0; SAGPY herbicidal effect rating (Sagittaria pygmaea, L.; Rate 0.0625 kg/ha): 0.0; CYPSE herbicidal effect rating ([3]; Rate 0.0313 kg/ha): 0.0; CYPSE herbicidal effect rating ([3]; Rate 0.0625 kg/ha): 0.0; ECHORC herbicidal effect rating ([4]; Rate 0.0313 kg/ha): 6.0; ECHORC herbicidal effect rating ([4]; Rate 0.0625 kg/ha): 7.0
3 | Cn1c(C(F)(F)F)cc(=O)n(-c2ccc3snc(C(C)(C)C#N)c3c2)c1=O [Example 256, 1,2-Benzisothiazole-3-acetonitrile, 5-[3,6-dihydro-3-methyl-2,6-dioxo-4-(trifluoromethyl)-1(2H)-pyrimidinyl)-alpha,alpha-dimethyl-] | 8.0 | 9.0 | 9.0 | 9.0 | 9.0 | 9.0 | 4.0 | 8.0 | 6.0 | 9.0 | 7.0 | 9.0 | 6.0 | 8.0 | 8.0 | 9.0 | 9.0 | 0.0 | 2.0 | 3.0 | MOOVA herbicidal effect rating ([2]; Rate 0.0320 kg/ha): 8.0; SAGPY herbicidal effect rating (Sagittaria pygmaea, L.; Rate 0.0320 kg/ha): 0.0; CYPSE herbicidal effect rating ([3]; Rate 0.0320 kg/ha): 0.0; ECHORC herbicidal effect rating ([4]; Rate 0.0320 kg/ha): 1.0
4 | COC(=O)COc1ccc(-c2nsc3ccc(-n4c(=O)cc(C(F)(F)F)n(C)c4=O)cc23)cc1 [Example 257, Acetic acid, {p-{5-[3,6-dihydro-3-methyl-2,6-dioxo-4-(trifluoromethyl)-1(2H)-pyrimidinyl)-1,2-benzisothiazol-3-yl}phenoxy}-, methyl ester] | 1.0 | 2.0 | 4.0 | 6.0 | 9.0 | 9.0 | 0.0 | 0.0 | – | – | 0.0 | 0.0 | 0.0 | 0.0 | 0.0 | 2.0 | 9.0 | 0.0 | 0.0 | 0.0 | MOOVA herbicidal effect rating ([2]; Rate 0.0320 kg/ha): 8.0; SAGPY herbicidal effect rating (Sagittaria pygmaea, L.; Rate 0.0320 kg/ha): 0.0; CYPSE herbicidal effect rating ([3]; Rate 0.0320 kg/ha): 0.0; ECHORC herbicidal effect rating ([4]; Rate 0.0320 kg/ha): 0.0
5 | COC(=O)C(C)Oc1ccc(-c2nsc3ccc(-n4c(=O)cc(C(F)(F)F)n(C)c4=O)cc23)cc1 (stereo not drawn) [Example 258, Propionic acid, 2-{p-{5-[3,6-dihydro-3-methyl-2,6-dioxo-4-(trifluoromethyl)-1(2H)-pyrimidinyl]-1,2-benzisothiazol-3-yl}phenoxy}-, methyl ester] | 3.0 | 4.0 | 7.0 | 8.0 | 9.0 | 9.0 | 0.0 | 0.0 | 0.0 | – | 0.0 | 0.0 | 2.0 | 2.0 | 0.0 | 2.0 | 9.0 | 0.0 | 0.0 | 0.0 | MOOVA herbicidal effect rating ([2]; Rate 0.0320 kg/ha): 9.0; SAGPY herbicidal effect rating (Sagittaria pygmaea, L.; Rate 0.0320 kg/ha): 0.0; CYPSE herbicidal effect rating ([3]; Rate 0.0320 kg/ha): 0.0; ECHORC herbicidal effect rating ([4]; Rate 0.0320 kg/ha): 0.0
6 | C#CCOC(=O)COc1ccc(-c2nsc3ccc(-n4c(=O)cc(C(F)(F)F)n(C)c4=O)cc23)cc1 [Example 259, Acetic acid, [p-{5-[3,6-dihydro-3-methyl-2,6-dioxo-4-(trifluoromethyl)-1(2H)-pyrimidinyl]-1,2-benzisothiazol-3-yl}phenoxy)-, 2-propynyl ester] | 2.0 | 3.0 | 4.0 | 4.0 | 9.0 | 9.0 | 0.0 | 0.0 | – | – | 0.0 | 2.0 | 1.0 | 1.0 | 0.0 | 2.0 | 9.0 | 0.0 | 0.0 | 0.0 | MOOVA herbicidal effect rating ([2]; Rate 0.0320 kg/ha): 6.0; SAGPY herbicidal effect rating (Sagittaria pygmaea, L.; Rate 0.0320 kg/ha): 0.0; CYPSE herbicidal effect rating ([3]; Rate 0.0320 kg/ha): 0.0; ECHORC herbicidal effect rating ([4]; Rate 0.0320 kg/ha): 0.0
7 | Cn1c(C(F)(F)F)cc(=O)n(-c2ccc3snc(CCBr)c3c2)c1=O [Example 260, 2,4(1H,3H)-Pyrimidinedione, 3-[3-(2-bromoethyl)-1,2-benzisothiazol-5-yl]-1-methyl-6-(trifluoromethyl)-] | – | 0.0 | – | 0.0 | – | 0.0 | – | 0.0 | – | 0.0 | – | 0.0 | – | – | – | – | – | – | – | – | –
8 | COP(=O)(Cc1nsc2ccc(-n3c(=O)cc(C(F)(F)F)n(C)c3=O)cc12)OC [Example 262, 1,2-Benzisothiazole-3-methanephosphonic acid, 5-[3,6-dihydro-3-methyl-2,6-dioxo-4-(trifluoromethyl)-1(2H)-pyrimidinyl]-, dimethyl ester] | 0.0 | 3.0 | 6.0 | 9.0 | 9.0 | 9.0 | 0.0 | 0.0 | 0.0 | 0.0 | 0.0 | 3.0 | – | 0.0 | – | 0.0 | 0.0 | 0.0 | 0.0 | 0.0 | –
